Source: article PMC12519263, “Antifibrotic Efficacy of a Nintedanib–Peptide Conjugate and Diagnostic Potential of a Fluorescent Companion Probe Targeting αVβ6 Integrin in Idiopathic Pulmonary Fibrosis” (ACS Pharmacology & Translational Science, 2025)
Numbered stars: 1 amine (or outer) side, 2 acyl side, 3 side chain; on linkers, the order of the positions; unused ones are H or OH. Square brackets hold non-standard residues; d marks the D form. Peptide text beside a SMILES is read from it. X1 = [N-]=[N+]=NCCCCN1C[C@@H](N[*:1])C[C@H]1C(=O)[*:2]

Key:
human αvβ6 integrin = molecular target: T1, human αvβ6 integrin (Homo sapiens, UniProt P06756+P18564, DEL708-788); assay: Competitive solid-phase αvβ6 integrin binding assay to coated LAP; conditions: competitive solid-phase binding to coated LAP (0.4 μg/mL); soluble human αvβ6 0.25 μg/mL; compounds 10^-5–10^-10 M, 1 h room temperature; absorbance 450 nm; mean ± SD of three independent experiments in triplicate
T1 construct: purchased R&D Systems
Method: The ability of conjugate 1 to bind to the human, isolated αvβ6 integrin receptor was evaluated by a competitive solid-phase ligand-binding assay on purified αvβ6 integrin in the presence of increasing concentrations (10^–10–10^–5 M) of 1. To better evaluate the impact of the linker and nintedanib moieties on the binding capability of 1, the results (Table ) were compared to those obtained for free cyclopeptide 3 and previously reported cyclopeptide 11 (the deprotected version of prot-11, Scheme ). Binding curves are provided in Figure S3, Supporting Information.
The affinity of integrin ligands 1, 3, and 11 was determined by the solid-phase binding assay using soluble αvβ6 integrin and coated LAP, according to a previously reported protocol. Flat-bottom 96-well plates (Corning Costar, Segrate, Milan, Italy) were coated by passive adsorption with LAP (TGF-β; 0.4 μg/mL; R&D Systems) in carbonate buffer (15 mM Na2CO3 and 35 mM NaHCO3, pH 9.6; 100 μL/well) overnight at 4 °C. After three washes with PBS-T buffer (phosphate-buffered saline–Tween20, 137 mM NaCl, 2.7 mM KCl, 10 mM Na2HPO4, 2 mM KH2PO4, and 0.01% Tween20, pH 7.4; 200 μL/well), wells were blocked with TS-B buffer (Tris–saline/BSA buffer; 20 mM Tris–HCl, 150 mM NaCl, 1 mM CaCl2, 1 mM MgCl2, 1 mM MnCl2, pH 7.5, and 1% BSA; 150 μL/well) for 1 h at room temperature. After washing the assay plate three times with PBS-T (200 μL/well), soluble human αvβ6 integrin (0.25 μg/mL, R&D Systems) was incubated with compounds and tested at different concentrations (10^–5–10^–10 M), in the coated wells for 1 h at room temperature. The plate was washed three times with PBS-T buffer, and anti-αv primary antibody (1:500 dilution, 100 μL/well; mouse antihuman MAB1978, Merck Life Science, Milan, Italy) was added and incubated for 1 h at room temperature. […] The reaction was stopped with 1 M H2SO4 (50 μL/well), and the absorbance was measured at 450 nm with an EnSpire Multimode Plate Reader (PerkinElmer, Waltham, MA). […] Data analysis and IC50 affinity values were calculated using GraphPad Prism 10.4.1 (GraphPad Software, San Diego, CA). […]

[1] = In vitro stability in mouse plasma (LC-MS/MS); format: in vitro ADME; conditions: 80% v/v mouse plasma in 100 mM PBS pH 7.4, 37 °C, plasma pre-incubated 10 min, 1% DMSO, LC-MS/MS (MRM, ESI+), vs t = 0, mean ± SD (n=3), read-out: % Compound at 6h mouse plasma
Method: (§1) 2. In vitro plasma stability of compounds 1 and 2
(§2) Stability of compounds 1 and 2 in mouse and human plasma was evaluated by incubating 5 μL of a 100 µM solution of each compound in DMSO with 400 μL of plasma and 95 μL of 100 mM phosphate buffered saline (PBS) pH 7.4 (final compound concentration: 1 µM; final DMSO concentration: 1%). Plasma samples were pre-incubated at 37 °C for 10 min before adding the compound. At different time points, an aliquot was withdrawn from each sample and deproteinized by addition of 100 μL of ice-cold acetonitrile containing the structurally related compound 13 as internal standard (Table S1). After a centrifugation step (14,000 g, 10 min, 4 °C), the supernatants were analyzed by LC-MS/MS. A multiple reaction monitoring (MRM) acquisition method in positive ion mode (ESI+) was set up to monitor the remaining percentages of test compound at different time points, if compared to time t = 0.
(§3) LC-MS/MS Analytical Method. A Thermo TSQ Quantum triple-quadrupole mass spectrometer (Thermo Italia, Milan, Italy) equipped with a heated electrospray (H-ESI) ion source and coupled to a Thermo Accela UHPLC system was employed for LC-MS/MS data acquisition and analysis. The LC separation occurred on a Waters XSelect HSS T3 column (3.5 μm, 2.1 × 100 mm; Waters, Milford, USA) at room temperature. […]

[2] = In vitro stability in human plasma (LC-MS/MS); format: in vitro ADME; conditions: 80% v/v human plasma in 100 mM PBS pH 7.4, 37 °C, plasma pre-incubated 10 min, 1% DMSO, LC-MS/MS (MRM, ESI+), vs t = 0, mean ± SD (n=3), read-out: % Compound at 6h human plasma
Method: as §1, §2, §3

hIPF fibroblasts = assay: Cell internalization by flow cytometry (intrinsic nintedanib fluorescence); format: cell-based, human; conditions: 24 h, 5 μM, flow cytometry λex 405 nm, BV421 channel, one representative result
Method: Cells were exposed for 24 h for treatment with compound 1 or nintedanib at 5 μM concentration; next, the percentage of positive cells of different treatment populations was determined and compared with the fluorescence intensity of untreated (UT) cells.
The integrin-mediated cell internalization of conjugate 1 and free nintedanib was determined by exploiting the intrinsic fluorescence of the nintedanib moiety (λex = 405 nm; λem = 480 nm). Intracellular fluorescence activity of 5 μM nintedanib was measured by flow cytometry. Fluorescence emission was analyzed using the BD Brilliant Violet 421 channel (450/50 nm bandpass filter) for the 405 nm laser.
Briefly, 150,000 cells were seeded in T25 flasks in complete culture medium and treated for 24 h with nintedanib or compound 1 at 5 μM concentration. After incubation, the cells were washed with PBS, gently detached using trypsin–EDTA solution, and resuspended in complete medium. After centrifugation (1500 rpm for 5 min), the cells were washed in PBS and resuspended in 300 μL of PBS for FACS analysis.

[3] = tested on: TGF-β1 in hIPF fibroblasts; assay: Western blot of intracellular TGF-β1 (44 kDa) expression; format: cell-based, human; conditions: 24 h, 5 μM, Western blot densitometry normalized to vinculin, vs untreated, three independent experiments
Description: (§4) The effect of treatment with compound 1 on patient-derived hIPF fibroblasts was next investigated by evaluating the inhibition of both TGF-β1 production and ERK1/2 phosphorylation. It is important to note that TGF-β1 expression is usually evaluated in cultured cells in secreted form in their culture medium (soluble and active form of TGF-β1 (13 kDa)). We reasoned that the evaluation of the intracellular form of full-length TGF-β1 (44 kDa) in hIPF fibroblasts might directly reflect the potency of the conjugated compound to inhibit TGF-β1 production. Evaluation of these fibrosis-related hallmarks would have been indicative of the downstream effect of our conjugate on IPF-related human cell signaling promoted by either the integrin ligand, the nintedanib component, or both. […]
(§5) The protein content in each sample was quantified using the Bradford colorimetric assay, and 56 μg of total proteins was prepared for SDS-PAGE analysis using Bolt LDS Sample Buffer 4× (Novex, Life Technologies) with 10% Bolt Sample Reducing Agent 10× (Novex, Life Technologies). […] Each band detected was quantified by densitometric analysis, using ImageJ software, and normalized against vinculin expression as the housekeeper protein.

[4] = tested on: p-ERK1/2 in hIPF fibroblasts; assay: Western blot of ERK1/2 phosphorylation; format: cell-based, human; conditions: 24 h, 5 μM, Western blot densitometry normalized to vinculin, vs untreated, three independent experiments
Description: as §4, §5

[5] = tested on: BLM-induced lung fibrosis; assay: Antifibrotic therapy in BLM-induced lung fibrosis mouse model (Study #2; μCT, histology); format: in vivo, C57Bl/6 mice; conditions: day 14 to 21, BLM mice; for severe fibrotic lesions (Ashcroft score, histology): left lobe, Picrosirius red, day 21, vs BLM
Description: After triple BLM instillation, all mice underwent μCT imaging on days 14 and 21, indicating the beginning and the end of the therapeutic window. , On day 14, the BLM-treated mice were divided into 5 groups, namely, Vehicle, NINT (23), NINT (94), PepNIN 1 (23), and Ligand 11 (23). […] The two remaining groups received the NINT (23) (nintedanib at 23 μmol/kg) and ligand 11 (23) (cyclopeptide ligand 11 at 23 μmol/kg) alone to investigate the therapeutic effect of each single component at this reduced dosage.
Bleomycin hydrochloride (Baxter) dissolved in 50 μL of saline was administered via a triple oropharyngeal aspiration (OA) under 2.5% isoflurane anesthesia to induce pulmonary fibrosis, as previously described. , The negative control group received a triple OA with saline (Saline).
In Study #2, BLM-treated mice (29 of 35 mice) on day 14 were divided into 5 different groups (reported in Table S2, Supporting Information) and were daily treated with nintedanib (94 or 23 μmol/kg), PepNIN 1 (23 μmol/kg), integrin ligand 11 (23 μmol/kg), or vehicle (1% Tween 80 in ultrapure water) by oral gavage from day 14 to day 21. All mice were longitudinally monitored by μCT imaging on days 14 and 21, and subsequently they were sacrificed for the histological assessment of lung fibrosis.
Mice thoraxes were imaged using a Quantum GX Micro-CT scanner (Revvity, Inc. Waltham, MA) after anesthetic induction and maintenance with 2% isoflurane. Images were taken in free-breathing mice using the following parameters: an X-ray tube current of 88 A, an X-ray tube voltage of 90 kV, and a total angle of 360° over a scan period of 4 min. The detector was 736 × 588 pixels with a size of 0.2 mm. The reconstruction method automatically trimmed the pixels to produce a projection size of 512 × 512 pixels. Binning was not employed. Each animal was placed supine on the scanner bed, with its chest adjusted to fit inside the field of view. To detect the breathing pattern, pictures were captured in “high-speed” mode, allowing the recording of the gating signal through a region of interest (ROI) positioned over the animals’ diaphragm. Projections were collected in “list mode” (labeled as “00000”, “00001”, ···, “14′687”) during a single continuous gantry rotation. […] The acquisition duration was 4 min, and around 900 projections (both P01 and P02) were automatically selected and used for the reconstruction of the two data sets, with the option to change the thresholds to select the most suited projections. However, our highly controlled anesthetic protocol , enabled us to maintain constant breathing rates (100–120 bpm). Two stacks of 512 cross-sectional images were automatically reconstructed into two 3D data sets corresponding to the inspiratory and expiratory breathing phases (end-inspiration, P01; end-expiration, P02), with a 50 μm isotropic reconstructed voxel size, using a filtered back-projection algorithm with a Ram-Lak filter.

human recombinant VEGFR = tested on: human recombinant VEGFR; design: method as in previously reported, see ref (number not given); conditions: ref previously reported, see ref (number not given); read-out: IC50, TKI activity against human recombinant VEGFR; cited from earlier work
[6] = molecular target: soluble human αvβ6 integrin (human) (UniProt P06756); assay: ELISA; competitive solid-phase binding assay: LAP (0.4 μg/mL) coated in carbonate buffer pH 9.6 overnight at 4 °C, blocked with TS-B buffer (20 mM Tris–HCl, 150 mM NaCl, 1 mM CaCl2, 1 mM MgCl2, 1 mM MnCl2, pH 7.5, 1% BSA); soluble human αvβ6 (0.25 μg/mL) incubated with compounds (10^-5–10^-10 M) in the coated wells 1 h at room temperature; bound integrin detected with anti-αv antibody and HRP secondary
[7] = 94 μmol/kg oral gavage daily, vs BLM group

Compound: COC(=O)c1ccc2c(c1)NC(=O)/C2=C(\Nc1ccc(N(C)C(=O)CN2CCN(CCOCCOCCOCc3cn(CCCCN4C[C@@H]5C[C@H]4C(=O)N[C@@H](CC(C)C)C(=O)N[C@@H](CCCNC(=N)N)C(=O)NCC(=O)N[C@@H](CC(=O)O)C(=O)N[C@@H](CC(C)C)C(=O)N5)nn3)CC2)cc1)c1ccccc1 [compound 1]
- IC50 (human αvβ6 integrin): 1.95 ± 0.16 nM
- remaining at 6 h [1]: 95 ± 4%
- remaining at 6 h [2]: 96 ± 5%

Compound: CC(C)C[C@@H]1NC(=O)[C@H](CC(=O)O)NC(=O)CNC(=O)[C@H](CCCNC(=N)N)NC(=O)[C@H](CC(C)C)NC(=O)[C@@H]2C[C@@H](CN2C(=O)CCCCCNC(=O)CCc2ccc(OC3=C(/C=C/C4=[N+](CCC[N+](C)(C)C)c5ccc(S(=O)(=O)O)cc5C4(C)C)CCC/C3=C\C=C3\N(CCC[N+](C)(C)C)c4ccc(S(=O)(=O)O)cc4C3(C)C)cc2)NC1=O [compound 2]
- remaining at 6 h [1]: 59 ± 3%
- remaining at 6 h [2]: 51 ± 3%

Compound: CC(C)C[C@@H]1NC(=O)[C@H](CC(=O)O)NC(=O)CNC(=O)[C@H](CCCNC(=N)N)NC(=O)[C@H](CC(C)C)NC(=O)[C@@H]2C[C@@H](CN2CCCCN=[N+]=[N-])NC1=O [compound 3] (cyclo(RGDL[X1]L))
- IC50 (human αvβ6 integrin): 4.52 ± 0.68 nM

Compound: CC(C)C[C@@H]1NC(=O)[C@H](CC(=O)O)NC(=O)CNC(=O)[C@H](CCCNC(=N)N)NC(=O)[C@H](CC(C)C)NC(=O)[C@@H]2C[C@@H](CN2C(=O)CCCCCN=[N+]=[N-])NC1=O [compound 11]
- IC50 (human αvβ6 integrin): 30.3 ± 7.6 nM

Compound: COC(=O)c1ccc2c(c1)NC(=O)/C2=C(\Nc1ccc(N(C)C(=O)CN2CCN(C)CC2)cc1)c1ccccc1 [nintedanib]
- percentage of positive cells (internalization) (hIPF fibroblasts): about 94%
- percentage of positive cells (internalization) (hIPF fibroblasts; listed as NINT): 93.8%
- expression of intracellular form of TGF-β1 (44 kDa) [3]: reduced
- ERK1/2 phosphorylation [4]: reduced
- severe fibrotic lesions (Ashcroft score, histology) ([5]; 23 μmol/kg oral gavage daily): had no effects
- lung aeration by longitudinal μCT (%GasExpiration, poorly aerated tissue) ([5]; 23 μmol/kg oral gavage daily, vs BLM group): tendency toward disease progression
- severe fibrotic lesions (Ashcroft score, histology) ([5]; 94 μmol/kg oral gavage daily): clearly reduced severe fibrotic lesions
- CT biomarkers adjusted to own basal value on day 14 [5, 7]: statistically significant improvement
- lung aeration by longitudinal μCT (%GasExpiration, poorly aerated tissue) [5, 7]: significantly improved lung aeration
- IC50 (human recombinant VEGFR): 7 nM

Compound: c(phg-isoDGRk) (peptide)
- IC50 [6]: 24.7 nM
